Experiments:
Tetranychus urticae = assay: Effectiveness against Tetranychus urticae (adulticidal rate on common bean leaf); format: in vivo; details: 125 ppm wettable powder dilution; adult females resistant to organophosphorus pesticides; 3 days after application; 25° C., 65% humidity
Panonychus citri = assay: Effectiveness against Panonychus citri (mandarin orange leaf in petri dish); format: in vivo; details: 125 ppm emulsion dilution; adults removed 3 days after application; examined on the 11th day; 25° C., 65% humidity
Method: 10 adult female Panonychus citri were inoculated on the leaf of a mandarin orange, which was placed in a petri dish. After the inoculation, the drug solution, which was prepared by following the method of the emulsion shown in Example 2 of the drugs and by diluting with water to achieve the compound concentration of 125 ppm, was applied using a rotary spreading tower. The dish was placed in a temperature-controlled room where the temperature and humidity were set to 25° C. and 65% respectively, adults were removed 3 days after the application, and whether eggs laid during these 3 days could grow to become adults was examined on the 11th day.

FC(F)(F)c1ccc(OC2CC3CCC(C2)N3c2ccc(C(F)(F)F)cn2)nc1 (stereo not drawn) [Compound 2-3, 3α-(5-trifluoromethyl-2-pyridyloxy)-8-(5-trifluoromethyl-pyridin-2-yl)-8-azabicyclo[3.2.1]octane]
insecticidal rate (adulticidal rate) (Tetranychus urticae): 100%

CCCOc1cc(C(F)(F)F)ccc1OC1CC2CCC(C1)N2c1ccc(C(F)(F)F)c(F)c1 (stereo not drawn) [Compound 4-70, 3α-[2-n-propoxy-4-(trifluoromethyl)phenoxy]-8-[3-fluoro-4-(trifluoromethyl)phenyl]-8-azabicyclo[3.2.1]octane]
insecticidal rate (adulticidal rate) (Tetranychus urticae): 100% | insecticidal rate (whether eggs laid during 3 days could grow to adults) (Panonychus citri): 100%

Source: patent US8697867B2, “Cross-linked cyclic amine compounds and agents for pest control” (Nippon Soda Co., Ltd., priority 2005, dated 2014)
